Legend:
Type in all cases: in vivo
[1] = test system: C57BL/6J, AKR/J and DBA/2J mice; assay: Sleep onset and vigilance states in three inbred mouse strains after IP injection
Protocol: At least 7 adult male mice of inbred strains C57BL/6J, AKR/J, and DBA/2J were recorded in 2 sessions of 72 continuous hours. The first 24 h in each session are considered as baseline followed the next day by the saline injection and the next day by 150 mg/kg of the test compound in the first session and 5 mg/kg d-amphetamine in the second session. The two sessions were separated by 7 days (wash-out period) and all injections were intraperitoneal (IP) and performed at light onset (9 am) in a volume of 5 ml/kg.

[2] = test system: male adult Sprague Dawley rats; assay: Sleep-wake organization (EEG/EOG/EMG) in rats after acute i.p. administration; details: for Duration Active wake / Duration Deep sleep / Duration Intemediate stage / Duration Light sleep / Duration Passive wake / Duration REM sleep / Latency ISWS / Latency REM sleep / Latency dSWS / Shifts: Shift from ISWS to AW / Shifts: Shift from ISWS to PW / Shifts: Shift from REMS to AW / Shifts: Shift from REMS to PW / Shifts: Shift from dSWS to AW / Shifts: Shift from dSWS to PW: rats, mean ± s.e.m of 8 rats; for Duration Active wake / Duration Deep sleep / Duration Intemediate stage / Duration Light sleep / Duration Passive wake / Duration REM sleep: 16 h recording
[3] = test system: adult human subjects with moderate or severe major depression without psychotic features; assay: Randomized double-blind placebo- and active-controlled 6-week study in major depression; details: for ABCD questionnaire items (of 51) with statistically significant superiority to placebo: post hoc analyses
Source text: This was a randomized, double-blind, parallel-group, active, and placebo-controlled, multicenter study conducted in the U.S. (23 centers) and Canada (4 centers). There were 2 phases: a pretreatment phase (screening/washout and a baseline visit) and a 6-week, double-blind treatment phase. Paroxetine, a positive control, was included to evaluate assay sensitivity. After washout (if needed) of prohibited substances, subjects were randomly assigned (1:1:1:1) to receive the test compound titrated to a target dose of 200 mg/day or 400 mg/day, matching placebo, or a fixed dose (20 mg/day) of paroxetine. Study drug was given twice daily for 6 weeks. Efficacy and safety were assessed weekly during the double-blind phase. Subjects completing the study underwent an Exit Interview (“Your Health and Well-Being”) and completed an Assessment of Benefits of Clinical-trial Drug-treatment (ABCD) questionnaire (U.S. sites only).

[4] = test system: hypocretin cell ablated narcoleptic mice (prepororexin/ataxin-3 transgenic) and their littermate wild-type mice; assay: Sleep parameters (EEG/EMG polygraph) in narcoleptic and wild-type mice after oral dosing; details: for duration of continuous wakefulness: resting period (ZT 2), most wild-type and narcoleptic mice
Source text: The polygraph signal (EEG and EMG) was captured with SleepSign (Kissei Comtech), and the sleep stage was visually scored with 10 sec epoch for wakefulness, non-REM sleep and REM sleep. Scoring criteria are: Wakefulness is characterized by desynchronized low-amplitude, mixed frequency (>4 Hz) EEG and high EMG activity. Rhythmic alpha (8-9 Hz) wave (with high EMG activities) may also appear. Non-REM is characterized by synchronized, high-amplitude, low-frequency (0.25-4 Hz) with reduced EMG activity (compared to wakefulness). EEG activity in REM sleep is similar to that in wakefulness, with desynchronized, mixed frequency low amplitude waves. Rhythmic alpha (8-9 Hz) wave with reduced EMG activities may also appear. […] is reduced even further and in many cases, completely absent. Same muscle twitching may be apparent in the EMG trace during REM sleep.
Three drug doses of the test compound (50, 100 and 150 mg/kg PO) plus vehicle, were orally administered at ZT 2 (2 hours after light on) or ZT14 (2 hours after light off), and the effects on sleep were monitored for 6 hours after the drug administration (the sleep data was collected for 30 hours after the drug injection, and are available for further analysis). The doses for modafinil were 50 and 200 mg/kg PO (plus vehicle), and modafinil was also administered at ZT 2 and […]
If the polygraph signals of some mice were not sufficient to score the sleep stage with accuracy (especially bad EMG), data from these animals were excluded, and the minimum of 5 animals (except for the highest dose of the test compound in wild-type mice in dark period, n=4) were included for the data analysis and number of animals were indicated in the figures.
Effects of test compound and modafinil on the amount of wake, non-REM sleep, REM sleep (cumulative seconds), number of episodes for each sleep stage during 6 hours, and mean wake/sleep-bout lengths (seconds) were analyzed in each animal and the mean of each parameter was calculated in each genotype. The effects of compounds on wake and sleep amounts are useful to evaluate the wake promoting potency, and the number of episodes for each sloop stage and the mean wake/sleep bout length are parameters for evaluating the sleep fragmentation. Amphetamine and modafinil, two main wake-promoting compounds currently used for the treatment of EDS associated with various etiologies (narcolepsy, idiopathic hypersomnia and secondary EDS), are known to increase wake time and prolong wake bout length in normal and EDS conditions.
A comparison of the effects between hypocretin deficient and wild-type mice is very useful in determining the wake-promotion of the test compound is dependent on the availability of hypocretins, and if there is a possible change in the sensitivity of the receptive mechanisms of test compound in narcoleptic mice due to the hypocretin ligand deficiency.

[5] = 3 mg/kg i.p., 16 hours recording
[6] = 30 mg/kg i.p., 16-h post-injection

## NC(=O)OC[C@H](N)Cc1ccccc1 [test compound, (R)-(beta-amino-benzenepropyl) carbamate]
[1]; 150 mg/kg IP
  genotype effect on wake time referenced to sleep latency after saline: no genotype effect
[1]; 150 mg/kg IP at light onset, three inbred strains
  duration of induced continuous wakefulness (sleep latency): up to 4.5 hours
[1]; 150 mg/kg IP, hourly wakefulness over 72 h recordings
  wakefulness duration compared with d-amphetamine 5 mg/kg: significantly longer wakefulness duration than amphetamine
[2]; [5]
  increase in total light sleep vs vehicle: +26%
  increased drive to wakefulness from deep sleep vs vehicle: +15%
  increased drive to wakefulness from light sleep vs vehicle: +46%
[2]; 10 mg/kg i.p.
  increase in shifts from REM sleep towards active wakefulness vs vehicle: +16%
  increase in total duration of light sleep vs vehicle: +24%
  Duration Active wake: 305.5 ± 15.1 min
  Duration Deep sleep: 104.0 ± 19.3 min
  Duration Intemediate stage: 5.2 ± 0.7 min
  Duration Light sleep: 366.6 ± 21.2 min
  Duration Passive wake: 73.1 ± 13.2 min
  Duration REM sleep: 102.3 ± 4.6 min
  Latency ISWS: 30.4 ± 7.9 min
  Latency REM sleep: 87.5 ± 14.5 min
  Latency dSWS: 127.2 ± 67.1 min
  Shifts: Shift from ISWS to AW: 204.5 ± 56.4 number
  Shifts: Shift from ISWS to PW: 84.4 ± 40.5 number
  Shifts: Shift from REMS to AW: 94.1 ± 24.0 number
  Shifts: Shift from REMS to PW: 8.9 ± 6.7 number
  Shifts: Shift from dSWS to AW: 4.2 ± 3.1 number
  Shifts: Shift from dSWS to PW: 12.5 ± 8.5 number
[2]; 30 mg/kg i.p.
  change in number of epochs of REM sleep: −24%
  change in number of epochs of active wakefulness: +19%
  change in number of epochs of light sleep: −23%
  change in number of epochs of passive wakefulness: −30%
  mean durations of sleep wake states: not modified
  onset of activity after administration: ~30 min
  Duration Active wake: 371.6 ± 7.7 min
  Duration Deep sleep: 214.9 ± 15.6 min
  Duration Intemediate stage: 4.0 ± 1.0 min
  Duration Light sleep: 235.8 ± 14.3 min
  Duration Passive wake: 57.3 ± 4.7 min
  Duration REM sleep: 72.9 ± 7.3 min
  Latency ISWS: 73.6 ± 25.7 min
  Latency REM sleep: 251.8 ± 32.0 min
  Latency dSWS: 174.6 ± 12.3 min
  Shifts: Shift from ISWS to AW: 221.9 ± 58.3 number
  Shifts: Shift from ISWS to PW: 74.2 ± 29.0 number
  Shifts: Shift from REMS to AW: 65.1 ± 21.8 number
  Shifts: Shift from REMS to PW: 4.1 ± 3.2 number
  Shifts: Shift from dSWS to AW: 8.7 ± 5.3 number
  Shifts: Shift from dSWS to PW: 17.6 ± 12.0 number
[2]; [6]
  change of total time spent in REM sleep vs vehicle: −25%
  change of total time spent in active wakefulness vs vehicle: +19%
  change of total time spent in light sleep vs vehicle: −20%
  change of total time spent in passive wakefulness vs vehicle: −29%
[2]; 30 mg/kg i.p., beginning of the administration
  overall profile of effects: psychostimulant-like properties
[2]; 30 mg/kg i.p., starting 3 hours after administration
  duration of rebound increase in deep sleep: about 7 hours
[2]; i.p.
  duration of central activity after injection: at least 4 hours
  time of peak in effect post administration: around 2 hours
[2]; 3 mg/kg i.p.
  Duration Active wake: 290.0 ± 11.2 min
  Duration Deep sleep: 125.0 ± 24.6 min
  Duration Intemediate stage: 2.9 ± 0.7 min
  Duration Light sleep: 374.7 ± 16.6 min
  Duration Passive wake: 79.5 ± 10.7 min
  Duration REM sleep: 84.0 ± 5.4 min
  Latency ISWS: 15.6 ± 4.1 min
  Latency REM sleep: 66.0 ± 11.8 min
  Latency dSWS: 42.0 ± 8.5 min
  Shifts: Shift from ISWS to AW: 217.8 ± 55.5 number
  Shifts: Shift from ISWS to PW: 78.1 ± 35.8 number
  Shifts: Shift from REMS to AW: 78.0 ± 21.6 number
  Shifts: Shift from REMS to PW: 3.7 ± 3.0 number
  Shifts: Shift from dSWS to AW: 9.7 ± 6.6 number
  Shifts: Shift from dSWS to PW: 6.6 ± 5.9 number
[3]; 200 mg
  ABCD questionnaire items (of 51) with statistically significant superiority to placebo: 14 items
[3]; 400 mg
  ABCD questionnaire items (of 51) with statistically significant superiority to placebo: 8 items
[3]; one or both doses (200 and 400 mg/day), 6 weeks
  secondary efficacy variables of mood and well-being: statistically significantly greater efficacy than placebo
[3]; target dose 200 mg/day, 6 weeks
  Insomnia, treatment-emergent adverse event incidence: 24%
[3]; target dose 400 mg/day, 6 weeks
  Insomnia, treatment-emergent adverse event incidence: 35%
[4]; 50 mg/kg PO
  duration of continuous wakefulness: up to 3 hours
[4]; 100 mg/kg PO
  duration of continuous wakefulness: ≤ 4 h
[4]; 150 mg/kg PO
  duration of continuous wakefulness: ≤ 5 h
[4]; 50-150 mg/kg PO, wild-type and narcoleptic mice
  bouts of wakefulness: significantly increased bouts of wakefulness
[4]; active (dark) period, ZT14, PO
  effect on wakefulness: dose-dependently increased wakefulness
[4]; active period, 100 and 150 mg/kg PO
  wake amounts in narcoleptic mice relative to wild-type mice: brought up to the levels of wild-type mice
[4]; active period, PO
  amounts of non-REM and REM sleep in narcoleptic mice relative to wild-type mice: brought down to the levels of wild-type mice
[4]; resting period, 50, 100, 150 mg/kg PO
  Non-REM and REM sleep during the period of continuous wakefulness: completely suppressed
[4]; resting period, 50-150 mg/kg PO
  EEG patterns after administration: no abnormal EEG patterns
[4]; resting period, PO
  effect on REM sleep: potently reduced REM sleep
[4]; resting period, wild-type and hypocretin-deficient narcoleptic mice, PO
  wake-promoting effects: Very potent wake-promoting effects

From patent US9999609B2, “Methods for treating or preventing fatigue” (SK Biopharmaceuticals Co., Ltd., priority 2009, dated 2018)
